Measurements published in patent US8440842B2, “Antimicrobial compounds, their synthesis and their use for treatment of mammalian infections” (Leibniz-Institut fuer Naturstoff-Forschung und …, priority 2007, dated 2013).
In brackets after ≈: the same amount, converted by molar mass. Read-outs that look alike come from different tables or passages of the source.

Key:
[1] = system: Mycobacterium smegmatis SG 987; test: MIC by broth micro dilution method in Mueller-Hinton broth (NCCLS); format: cell-based; conditions: Mycolicibacterium smegmatis
Procedure: (§1) Determination of the in vitro inhibitory activity of the compounds of the invention against mycobacteria.
(§2) The antibacterial activities of the compounds against Mycobacterium smegmatis SG 987, M. aurum SB66, M. vaccae IMET 10670 and M. fortuitum B were tested by determination of minimal inhibitory concentrations (MIC) by the broth micro dilution method in Mueller-Hinton broth (Difco) according to the NCCLS guidelines [National Committee for Clinical Laboratory Standards: Methods for dilution antimicrobial susceptibility tests for bacteria that grow aerobically; 5th Ed.; Villanova, Ed.; Approved standard Document M7-A5. NCCLS, (2000)].

M. vaccae IMET 10670 = test: as above; format: cell-based; conditions: Mycolicibacterium vaccae
Procedure: as §1, §2

M. fortuitum B = test: as above; format: cell-based; conditions: Mycolicibacterium fortuitum, read-out: M. fortuitum MIC
Procedure: as §1, §2

M. tuberculosis H37Rv [2] = test: resazurin reduction assay (MIC96), Alamar Blue method; format: cell-based; conditions: Mycobacterium tuberculosis, read-out: minimal inhibitory concentrations (MIC) M. tuberculosis H37Rv
Procedure: Activity against M. tuberculosis H37Rv was determined by the resazurin reduction assay (MIC96) too. The method was described in detail in: P. Quillardet, O. Huisman, R. D'Ari, M. Hofnung, Proc. Natl. Acad. Sci. USA, 1982, 79, 5971-5; J. C. Palomino, A. Martin, M. Camacho, H. Guerra, J. Swings, F. Portaels, Antimicrob. Agents Chemother., 2002, 46, 2720-2.

M. tuberculosis H37Rv [3] = test: MIC and MBC, classical method (liquid Shkolnikova medium, Lowenstein-Jensen medium); format: cell-based; conditions: Mycobacterium tuberculosis; for MIC: 336 h
[4] = SG987, broth micro dilution, Mueller-Hinton broth, read-out: M. smegmatis MIC
[5] = IMET10670, broth micro dilution, Mueller-Hinton broth, read-out: M. vaccae MIC
[6] = broth micro dilution, Mueller-Hinton broth
[7] = strain H37Rv, liquid Shkolnikova medium, 14 days at 37° C., read-out: MIC
[8] = strain H37Rv, solid drug free Lowenstein-Jensen medium, 21-28 days, read-out: MBC

Row | Structure (SMILES) | MIC ([1]; SG987, read-out: M. smegmatis MIC) [ng/mL] | MIC (M. vaccae IMET 10670; IMET10670, read-out: M. vaccae MIC) [ng/mL] | MIC (M. fortuitum B) [ng/mL] | melting point [°C] | MIC [1, 4] [ng/mL] | MIC (M. vaccae IMET 10670; [5]) [ng/mL] | MIC (M. fortuitum B; [6]) [ng/mL] | MIC (M. tuberculosis H37Rv [2]) [ng/mL] | MBC (M. tuberculosis H37Rv [3]; H37RV) [ng/mL] | MIC (M. tuberculosis H37Rv [3]; H37RV) [ng/mL] | MIC (M. tuberculosis H37Rv [3]; [7]) [ng/mL] | MBC (M. tuberculosis H37Rv [3]; [8]) [ng/mL]
1 | O=c1nc(N2CCN(c3ccc(Cl)cc3)CC2)sc2c([N+](=O)[O-])cc([N+](=O)[O-])cc12 [Compound 1, 2-[4-(4-Chlorophenyl)piperazin-1-yl]-6,8-dinitro-4H-1,3-benzothiazin-4-one] | 780 (≈ 1740 nM) | 6.2 (≈ 13.8 nM) | 780 (≈ 1740 nM) | 279 to 281 |  |  |  |  |  |  |  | 
2 | Cc1ccc(Cl)cc1N1CCN(c2nc(=O)c3cc(C(F)(F)F)cc([N+](=O)[O-])c3s2)CC1 [Compound 2, 2-[4-(5-chloro-2-methylphenyl)piperazin-1-yl]-8-nitro-6-(trifluoromethyl)-4H-1,3-benzothiazin-4-one] |  |  |  | 158 to 161 | 50 (≈ 103 nM) | 8 (≈ 16.5 nM) | 31 (≈ 63.9 nM) |  |  |  |  | 
3 | O=c1nc(N2CCN(c3cccc(C(F)(F)F)c3)CC2)sc2c([N+](=O)[O-])cc(C(F)(F)F)cc12 [Compound 3, 8-Nitro-6-(trifluoromethyl)-2-{4-[3-(trifluoromethyl)phenyl]piperazin-1-yl}-4H-1,3-benzothiazin-4-one] |  |  |  | 201 to 203 | 40 (≈ 79.3 nM) | 3.1 (≈ 6.15 nM) | 3.1 (≈ 6.15 nM) |  |  |  |  | 
4 | CCN(Cc1ccccc1)c1nc(=O)c2cc(C(F)(F)F)cc([N+](=O)[O-])c2s1 [Compound 4, 2-[Benzyl(ethyl)amino]-8-nitro-6-(trifluoromethyl)-4H-1,3-benzothiazin-4-one] |  |  |  | 94 to 97 | 6.2 (≈ 15.1 nM) | 0.8 (≈ 1.95 nM) | 6.2 (≈ 15.1 nM) | 2 (≈ 4.89 nM) |  |  |  | 
5 | CN(Cc1ccccc1)c1nc(=O)c2cc(C(F)(F)F)cc([N+](=O)[O-])c2s1 [Compound 5, 2-[Benzyl(methyl)amino]-8-nitro-6-(trifluoromethyl)-4H-1,3-benzothiazin-4-one] |  |  |  | 120 to 124 | 15.6 (≈ 39.5 nM) | 0.5 (≈ 1.26 nM) | 15.6 (≈ 39.5 nM) | 3 (≈ 7.59 nM) | 3120 (≈ 7890 nM) | 1560 (≈ 3950 nM) |  | 
6 | O=c1nc(N2CCN(c3ccccc3F)CC2)sc2c([N+](=O)[O-])cc(C(F)(F)F)cc12 [Compound 6, 2-[4-(2-Fluorophenyl)piperazin-1-yl]-8-nitro-6-(trifluoromethyl)-4H-1,3-benzothiazin-4-one] |  |  |  | 164 to 168 | 5 (≈ 11 nM) | 5 (≈ 11 nM) | 5 (≈ 11 nM) |  |  |  |  | 
7 | O=c1nc(N2CCN(Cc3ccccc3)CC2)sc2c([N+](=O)[O-])cc(C(F)(F)F)cc12 [Compound 7, 2-(4-Benzylpiperazin-1-yl)-8-nitro-6-(trifluoromethyl)-4H-1,3-benzothiazin-4-one] |  |  |  | 161 to 163 | 50 (≈ 111 nM) | 50 (≈ 111 nM) | 50 (≈ 111 nM) |  |  |  |  | 
8 | O=c1nc(NCc2ccccc2)sc2c([N+](=O)[O-])cc(C(F)(F)F)cc12 [Compound 8, 2-(Benzylamino)-8-nitro-6-(trifluoromethyl)-4H-1,3-benzothiazin-4-one] |  |  |  | 192 to 194 | 0.78 (≈ 2.05 nM) | < 0.0121 | 0.78 (≈ 2.05 nM) | 50 (≈ 131 nM) | 1560 (≈ 4090 nM) | 1560 (≈ 4090 nM) |  | 
9 | C[C@H](c1ccccc1)N(C)c1nc(=O)c2cc(C(F)(F)F)cc([N+](=O)[O-])c2s1 [Compound 9, 2-{Methyl[(1R)-1-phenylethyl]amino}-8-nitro-6-(trifluoromethyl)-4H-1,3-benzothiazin-4-one] |  |  |  | 110 to 113 | < 0.0121 | < 0.0121 | < 0.0121 | 0.4 (≈ 0.977 nM) |  |  |  | 
10 | CN(Cc1ccccc1)c1nc(=O)c2cc(Cl)cc([N+](=O)[O-])c2s1 [Compound 10, 2-[Benzyl(methyl)amino]-6-chloro-8-nitro-4H-1,3-benzothiazin-4-one] |  |  |  | 138 to 141 | 6.2 (≈ 17.1 nM) | 0.31 (≈ 0.857 nM) | 1.56 (≈ 4.31 nM) | 25 (≈ 69.1 nM) |  |  | < 390 | 780 (≈ 2160 nM)
11 | NNC(=O)c1ccncc1 [Isoniazid (INH), Isoniazid, reference compound] |  |  |  |  |  |  |  | 125 (≈ 911 nM) |  |  | 780 (≈ 5690 nM) | 1560 (≈ 11400 nM)
